Source: patent publication US20220274954A1, “SUBSTITUTED N-PHENYL-N-AMINOUARCILS AND SALTS THEREOF AND USE THEREOF AS HERBICIDAL AGENTS” (Bayer Aktiengesellschaft, priority 2019, published 2022)

Legend:
Assay type in all cases: in vivo
[1] = tested on: Veronica persica; assay: Post-emergence herbicidal action
Experimental: (§1) Seeds of monocotyledonous and dicotyledonous weeds and crop plants were placed in sandy loam in plastic or wood-fiber pots, covered with soil and cultivated in a greenhouse under controlled growth conditions. 2 to 3 weeks after sowing, the test plants were treated at the one-leaf stage. The compounds of the invention, formulated in the form of wettable powders (WP) or as emulsion concentrates (EC), were then sprayed onto the green parts of the plants as aqueous suspension or emulsion with addition of 0.5% additive at a water application rate of […] (converted). After the test plants had been kept in the greenhouse under optimum growth conditions for about 3 weeks, the activity of the preparations was rated visually in comparison to untreated controls. For example, 100% activity=the plants have died, 0% activity=like control plants. Tables A1 to A14 below show the effects of selected compounds of the general formula (I) according to Tables I.1 to I.34 on various harmful plants and at an application rate corresponding to 20 g/ha and less, which were obtained by the experimental procedure mentioned above.

[2] = tested on: Amaranthus retroflexus; assay: Post-emergence herbicidal action
Experimental: as §1

[3] = tested on: Abutilon theophrasti; assay: Post-emergence herbicidal action
Experimental: as §1

[4] = tested on: Matricaria inodora; assay: Post-emergence herbicidal action
Experimental: as §1

[5] = tested on: Viola tricolor; assay: Post-emergence herbicidal action
Experimental: as §1

[6] = tested on: Echinochloa crus-galli; assay: Post-emergence herbicidal action
Experimental: as §1

[7] = tested on: Pharbitis purpurea; assay: Post-emergence herbicidal action
Experimental: as §1

[8] = tested on: Alopecurus myosuroides; assay: Post-emergence herbicidal action
Experimental: as §1

[9] = tested on: Triticum aestivum; assay: Post-emergence crop plant compatibility; settings: application rate 1.25 g/ha
Experimental: as §1, with “plants.” for “plants. Tables A1 to A14 below show the effects of selected compounds of the general formula (I) according to Tables I.1 to I.34 on various harmful plants and at an application rate corresponding to 20 g/ha and less, which were obtained by the experimental procedure mentioned above.”
(§2) Here, the observed effects on selected crop plants are stated in comparison to the untreated controls (values in %).

[10] = tested on: Avena fatua; assay: Post-emergence herbicidal action; settings: application rate 20 g/ha
Experimental: as §1

[11] = tested on: Oryza sativa; assay: Post-emergence crop plant compatibility; settings: application rate 1.25 g/ha
Experimental: as §1, with “plants.” for “plants. Tables A1 to A14 below show the effects of selected compounds of the general formula (I) according to Tables I.1 to I.34 on various harmful plants and at an application rate corresponding to 20 g/ha and less, which were obtained by the experimental procedure mentioned above.”
as §2

Row | Triticum aestivum (efficacy in %) [9] [%] | Oryza sativa (efficacy in %) [11] [%] | SMILES | Veronica persica (efficacy in %) ([1]; application rate 5 g/ha) [%] | Veronica persica (efficacy in %) ([1]; application rate 20 g/ha) [%] | Amaranthus retroflexus (efficacy in %) ([2]; application rate 5 g/ha) [%] | Amaranthus retroflexus (efficacy in %) ([2]; application rate 20 g/ha) [%] | Abutilon theophrasti (efficacy in %) ([3]; application rate 5 g/ha) [%] | Abutilon theophrasti (efficacy in %) ([3]; application rate 20 g/ha) [%] | Matricaria inodora (efficacy in %) ([4]; application rate 5 g/ha) [%] | Matricaria inodora (efficacy in %) ([4]; application rate 20 g/ha) [%] | Viola tricolor (efficacy in %) ([5]; application rate 5 g/ha) [%] | Viola tricolor (efficacy in %) ([5]; application rate 20 g/ha) [%] | Echinochloa crus-galli (efficacy in %) ([6]; application rate 5 g/ha) [%] | Echinochloa crus-galli (efficacy in %) ([6]; application rate 20 g/ha) [%] | Pharbitis purpurea (efficacy in %) ([7]; application rate 5 g/ha) [%] | Pharbitis purpurea (efficacy in %) ([7]; application rate 20 g/ha) [%] | Alopecurus myosuroides (efficacy in %) ([8]; application rate 5 g/ha) [%] | Alopecurus myosuroides (efficacy in %) ([8]; application rate 20 g/ha) [%] | Avena fatua (efficacy in %) [10] [%]
1 | 20 |  | Nn1c(C(F)(F)F)cc(=O)n(-c2cc(Sc3cccnc3OCC(=O)OC3COC3)c(Cl)cc2F)c1=O [I.1-115] | 100 | 100 | 100 | 100 | 90 | 100 | 100 | 100 | 100 | 100 | 90 | 100 | 100 | 100 | 80 | 100 | 
2 | 20 |  | N#CCOC(=O)COc1ncccc1Sc1cc(-n2c(=O)cc(C(F)(F)F)n(N)c2=O)c(F)cc1Cl [I.1-176] | 100 | 100 | 100 | 100 | 100 | 100 | 100 | 100 | 100 | 100 | 90 | 100 | 100 | 100 | 90 | 100 | 80
3 | 20 | 0 | Nn1c(C(F)(F)F)cc(=O)n(-c2cc(Sc3cccnc3OCC(=O)OCc3ccccn3)c(Cl)cc2F)c1=O [I.1-286] | 100 | 100 | 100 | 100 | 100 | 100 | 100 | 100 | 100 | 100 |  |  | 100 |  | 100 | 100 | 80
